Measured values reported in patent US9062078B2, “Substituted 7-azabicyles and their use as orexin receptor modulators” (priority 2013, dated 2015).
Where two headings read alike, the source gives them in different places.

Key:
[1] = target: rat orexin 1 receptor (Rattus norvegicus, UniProt P56718); assay: Rat orexin 1 receptor radioligand binding (competitive, [3H]-SB674042, HEK293 cell preparations)
[2] = target: human orexin 2 receptor (Homo sapiens (Human), UniProt O43614); assay: Human orexin 2 receptor radioligand binding (competitive, [3H]-EMPA, HEK293 cell preparations)
Chain of human orexin 2 receptor (O43614 whole entry): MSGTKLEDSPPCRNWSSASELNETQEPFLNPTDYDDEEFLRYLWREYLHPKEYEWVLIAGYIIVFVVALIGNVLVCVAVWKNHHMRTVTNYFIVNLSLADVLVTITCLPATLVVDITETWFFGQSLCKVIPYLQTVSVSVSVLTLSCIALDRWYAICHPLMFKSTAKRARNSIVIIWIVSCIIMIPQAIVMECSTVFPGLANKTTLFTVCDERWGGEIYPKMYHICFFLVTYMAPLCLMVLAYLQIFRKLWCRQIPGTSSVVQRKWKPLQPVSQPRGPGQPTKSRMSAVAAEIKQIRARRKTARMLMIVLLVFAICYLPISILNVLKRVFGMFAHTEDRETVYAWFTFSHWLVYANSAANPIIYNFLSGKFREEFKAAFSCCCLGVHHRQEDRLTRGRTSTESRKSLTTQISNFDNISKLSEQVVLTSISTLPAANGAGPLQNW

[3] = rat orexin 1 receptor, [3H]-SB674042 competition binding, read-out: rOX1 Ki (nm)
[4] = human orexin 2 receptor, [3H]-EMPA competition binding, read-out: hOX2 Ki (nm)

## Cc1ccc(-n2cccn2)c(C(=O)N2C3CCC2C(COc2ncc(F)cn2)C3)n1 (racemic) [Example 104, (±)-(2-(((5-fluoropyrimidin-2-yl)oxy)methyl)-7-azabicyclo[2.2.1]heptan-7-yl)(6-methyl-3-(1H-pyrazol-1-yl)pyridin-2-yl)methanone]
[1]; rOX1 Ki (nm)
  Ki: 1100 nM
[2]; hOX2 Ki (nm)
  Ki: 4600 nM

## COc1cccc(OC)c1C(=O)N1C2CCC1C(COc1ccc(F)cn1)C2 (racemic) [Example 106, (±)-(2,6-dimethoxyphenyl)(2-(((5-fluoropyridin-2-yl)oxy)methyl)-7-azabicyclo[2.2.1]heptan-7-yl)methanone]
[1]; [3]
  Ki: 300 nM
[2]; [4]
  Ki: 154 nM

## O=C(c1ncc(Cl)cc1-n1nccn1)N1C2CCC1C(COc1ccc(F)cn1)C2 (racemic) [Example 112, (±)-(5-chloro-3-(2H-1,2,3-triazol-2-yl)pyridin-2-yl)(2-(((5-fluoropyridin-2-yl)oxy)methyl)-7-azabicyclo[2.2.1]heptan-7-yl)methanone]
[1]; [3]
  Ki: 480 nM
[2]; [4]
  Ki: 1000 nM

## COc1cnc(C(=O)N2C3CCC2C(COc2ccc(F)cn2)C3)c(-n2nccn2)c1 (racemic) [Example 113, (±)-(2-(((5-fluoropyridin-2-yl)oxy)methyl)-7-azabicyclo[2.2.1]heptan-7-yl)(5-methoxy-3-(2H-1,2,3-triazol-2-yl)pyridin-2-yl)methanone]
[1]; [3]
  Ki: 3400 nM
[2]; [4]
  Ki: 4800 nM

## CCOc1ccc(C)nc1C(=O)N1C2CCC1C(COc1ccc(F)cn1)C2 (racemic) [Example 118, (±)-(3-ethoxy-6-methylpyridin-2-yl)(2-(((5-fluoropyridin-2-yl)oxy)methyl)-7-azabicyclo[2.2.1]heptan-7-yl)methanone]
[1]; [3]
  Ki: 440 nM
[2]; [4]
  Ki: 2200 nM

## COc1ccc(C(=O)N2C3CCC2C(COc2ccc(F)cn2)C3)c(-n2nccn2)c1 (racemic) [Example 119, (±)-(2-(((5-fluoropyridin-2-yl)oxy)methyl)-7-azabicyclo[2.2.1]heptan-7-yl)(4-methoxy-2-(2H-1,2,3-triazol-2-yl)phenyl)methanone]
[1]; [3]
  Ki: 500 nM
[2]; [4]
  Ki: 1300 nM

## Cc1cccc(-c2ncccn2)c1C(=O)N1C2CCC1C(COc1ccc(F)cn1)C2 (racemic) [Example 123, (±)-(2-(((5-fluoropyridin-2-yl)oxy)methyl)-7-azabicyclo[2.2.1]heptan-7-yl)(2-methyl-6-(pyrimidin-2-yl)phenyl)methanone]
[1]; rOX1 Ki (nm)
  Ki: 400 nM
[2]; [4]
  Ki: 286 nM

## CCOc1nccc(C)c1C(=O)N1C2CCC1C(COc1ccccn1)C2 (racemic) [Example 155, (±)-(2-ethoxy-4-methylpyridin-3-yl)(2-((pyridin-2-yloxy)methyl)-7-azabicyclo[2.2.1]heptan-7-yl)methanone]
[1]; rOX1 Ki (nm)
  Ki: 1570 nM
[2]; [4]
  Ki: 3600 nM

## Cc1nc2sccn2c1C(=O)N1C2CCC1C(COc1ccccn1)C2 (racemic) [Example 156, (±)-(6-methylimidazo[2,1-b]thiazol-5-yl)(2-((pyridin-2-yloxy)methyl)-7-azabicyclo[2.2.1]heptan-7-yl)methanone]
[1]; [3]
  Ki: > 10000 nM
[2]; [4]
  Ki: > 10000 nM

## CCOc1nc(C)ccc1C(=O)N1C2CCC1C(COc1ccccn1)C2 (racemic) [Example 158, (±)-(2-ethoxy-6-methylpyridin-3-yl)(2-((pyridin-2-yloxy)methyl)-7-azabicyclo[2.2.1]heptan-7-yl)methanone]
[1]; [3]
  Ki: 2930 nM
[2]; [4]
  Ki: 1780 nM

## O=C(c1c(O)ccc2cccnc12)N1C2CCC1C(COc1ccccn1)C2 (racemic) [Example 159, (±)-(7-hydroxyquinolin-8-yl)(2-((pyridin-2-yloxy)methyl)-7-azabicyclo[2.2.1]heptan-7-yl)methanone]
[1]; [3]
  Ki: 262 nM
[2]; [4]
  Ki: 786 nM

## CCOc1ncc(-c2ccccc2)cc1C(=O)N1C2CCC1C(COc1ccccn1)C2 (racemic) [Example 160, (±)-(2-ethoxy-5-phenylpyridin-3-yl)(2-((pyridin-2-yloxy)methyl)-7-azabicyclo[2.2.1]heptan-7-yl)methanone]
[1]; [3]
  Ki: 8700 nM
[2]; [4]
  Ki: > 10000 nM

## CCOc1nccc(Br)c1C(=O)N1C2CCC1C(COc1ccccn1)C2 (racemic) [Example 161, (±)-(4-bromo-2-ethoxypyridin-3-yl)(2-((pyridin-2-yloxy)methyl)-7-azabicyclo[2.2.1]heptan-7-yl)methanone]
[1]; [3]
  Ki: 478 nM
[2]; hOX2 Ki (nm)
  Ki: 1450 nM

## CCOc1ccnc(Cl)c1C(=O)N1C2CCC1C(COc1ccccn1)C2 (racemic) [Example 162, (±)-(2-chloro-4-ethoxypyridin-3-yl)(2-((pyridin-2-yloxy)methyl)-7-azabicyclo[2.2.1]heptan-7-yl)methanone]
[1]; [3]
  Ki: 8500 nM
[2]; [4]
  Ki: > 10000 nM

## O=C(c1cc(F)ccc1-n1nccn1)N1C2CCC1C(CNc1cnc3ccccc3n1)C2 (racemic) [Example 174, (±)-(5-fluoro-2-(2H-1,2,3-triazol-2-yl)phenyl)(2-((quinoxalin-2-ylamino)methyl)-7-azabicyclo[2.2.1]heptan-7-yl)methanone]
[1]; [3]
  Ki: 373 nM
[2]; [4]
  Ki: 1000 nM

## Cc1ccc(-c2ncccn2)c(C(=O)N2C3CCC2C(COc2ncc(F)cn2)C3)n1 (racemic) [Example 175, (±)-(2-(((5-fluoropyrimidin-2-yl)oxy)methyl)-7-azabicyclo[2.2.1]heptan-7-yl)(6-methyl-3-(pyrimidin-2-yl)pyridin-2-yl)methanone]
[1]; rOX1 Ki (nm)
  Ki: 2500 nM
[2]; [4]
  Ki: 4000 nM

## Cc1coc(-c2ccc(C)nc2C(=O)N2C3CCC2C(COc2ccc(F)cn2)C3)n1 (racemic) [Example 177, (±)-(2-(((5-fluoropyridin-2-yl)oxy)methyl)-7-azabicyclo[2.2.1]heptan-7-yl)(6-methyl-3-(4-methyloxazol-2-yl)pyridin-2-yl)methanone]
[1]; [3]
  Ki: 535 nM
[2]; [4]
  Ki: 4000 nM

## Cc1cnc(C(=O)N2C3CCC2C(Nc2cnc(C(F)(F)F)cn2)C3)c(-n2ccnn2)c1 (racemic) [Example 185, (±)-(5-methyl-3-(1H-1,2,3-triazol-1-yl)pyridin-2-yl)(2-(5-(trifluoromethyl)pyrazin-2-yl)amino)-7-azabicyclo[2.2.1]heptan-7-yl)methanone]
[1]; [3]
  Ki: 1500 nM
[2]; [4]
  Ki: 2700 nM

## Cc1cnc(C(=O)N2C3CCC2C(Nc2ccc(C(F)(F)F)cn2)C3)c(-n2nccn2)c1 (racemic) [Example 188, (±)-(5-methyl-3-(2H-1,2,3-triazol-2-yl)pyridin-2-yl)(2-(5-(trifluoromethyl)pyridin-2-yl)amino)-7-azabicyclo[2.2.1]heptan-7-yl)methanone]
[1]; rOX1 Ki (nm)
  Ki: 295 nM
[2]; [4]
  Ki: 1500 nM

## Cc1ccc(C(=O)N2C3CCC2C(Nc2ccc(C(F)(F)F)cn2)C3)c(-n2nccn2)n1 (racemic) [Example 189, (±)-(6-methyl-2-(2H-1,2,3-triazol-2-yl)pyridin-3-yl)(2-(5-(trifluoromethyl)pyridin-2-yl)amino)-7-azabicyclo[2.2.1]heptan-7-yl)methanone]
[1]; [3]
  Ki: 766 nM
[2]; hOX2 Ki (nm)
  Ki: 1500 nM

## Cc1ccc(C(=O)N2C3CCC2C(Nc2ccc(C(F)(F)F)cn2)C3)c(-n2ccnn2)n1 (racemic) [Example 190, (±)-(6-methyl-2-(1H-1,2,3-triazol-1-yl)pyridin-3-yl)(2-(5-(trifluoromethyl)pyridin-2-yl)amino)-7-azabicyclo[2.2.1]heptan-7-yl)methanone]
[1]; rOX1 Ki (nm)
  Ki: 589 nM
[2]; [4]
  Ki: 1200 nM

## COc1ccc(C(=O)N2C3CCC2C(Nc2ccc(C(F)(F)F)cn2)C3)c(-n2nccn2)c1 (racemic) [Example 191, (±)-(4-methoxy-2-(2H-1,2,3-triazol-2-yl)phenyl)(2-(5-(trifluoromethyl)pyridin-2-yl)amino)-7-azabicyclo[2.2.1]heptan-7-yl)methanone]
[1]; rOX1 Ki (nm)
  Ki: 257 nM
[2]; [4]
  Ki: 8800 nM

## COc1c(F)cccc1C(=O)N1C2CCC1C(Nc1ccc(C(F)(F)F)cn1)C2 (racemic) [Example 193, (±)-((3-fluoro-2-methoxyphenyl)(2-(5-(trifluoromethyl)pyridin-2-yl)amino)-7-azabicyclo[2.2.1]heptan-7-yl)methanone]
[1]; [3]
  Ki: 2900 nM
[2]; [4]
  Ki: > 10000 nM

## CCOc1ccc(C)nc1C(=O)N1C2CCC1C(Nc1ccc(C(F)(F)F)cn1)C2 (racemic) [Example 194, (±)-(3-ethoxy-6-methylpyridin-2-yl)(2-(5-(trifluoromethyl)pyridin-2-yl)amino)-7-azabicyclo[2.2.1]heptan-7-yl)methanone]
[1]; rOX1 Ki (nm)
  Ki: 450 nM
[2]; [4]
  Ki: 800 nM

## Cc1cc(C)nc(NC2CC3CCC2N3C(=O)c2nc(C)ccc2-c2ncccn2)n1 (racemic) [Example 200, (±)-(2-(((4,6-dimethylpyrimidin-2-yl)amino)-7-azabicyclo[2.2.1]heptan-7-yl)(6-methyl-3-(pyrimidin-2-yl)pyridin-2-yl)methanone]
[1]; [3]
  Ki: 1100 nM
[2]; [4]
  Ki: 552 nM

## Cc1cc(C)nc(NC2CC3CCC2N3C(=O)c2nc(C)ccc2-n2nccn2)n1 (racemic) [Example 201, (±)-(2-((4,6-dimethylpyrimidin-2-yl)amino)-7-azabicyclo[2.2.1]heptan-7-yl)(6-methyl-3-(2H-1,2,3-triazol-2-yl)pyridin-2-yl)methanone]
[1]; [3]
  Ki: 3700 nM
[2]; [4]
  Ki: 1100 nM

## Cc1cc(C)nc(NC2CC3CCC2N3C(=O)c2ccccc2-n2nccn2)n1 (racemic) [Example 202, (±)-(2-(2H-1,2,3-triazol-2-yl)phenyl)(2-(((4,6-dimethylpyrimidin-2-yl)amino)-7-azabicyclo[2.2.1]heptan-7-yl)methanone]
[1]; [3]
  Ki: 760 nM
[2]; hOX2 Ki (nm)
  Ki: 444 nM

## CCOc1ccc(C)nc1C(=O)N1C2CCC1C(Nc1nc(C)cc(C)n1)C2 (racemic) [Example 203, (±)-(2-((4,6-dimethylpyrimidin-2-yl)amino)-7-azabicyclo[2.2.1]heptan-7-yl)(3-ethoxy-6-methylpyridin-2-yl)methanone]
[1]; [3]
  Ki: > 10000 nM
[2]; [4]
  Ki: 490 nM

## O=C(c1ccccc1-n1nccn1)N1C2CCC1C(Nc1cccc(C(F)(F)F)n1)C2 (racemic) [Example 209, (±)-(2-(2H-1,2,3-triazol-2-yl)phenyl)(2-(6-(trifluoromethyl)pyridin-2-yl)amino)-7-azabicyclo[2.2.1]heptan-7-yl)methanone]
[1]; [3]
  Ki: 1100 nM
[2]; [4]
  Ki: 736 nM
